Test results: PMC8222254, “Self-assembly of an anion receptor with metal-dependent kinase inhibition and potent in vitro anti-cancer properties” (Nature Communications, 2021)
Values joined by “and” are separate entries in the source; they are usually repeats but may differ in a detail not shown here. Equal values may be shown once.

How the values were obtained:
Test in all cases: Kinase inhibition screen, cell-free 33P ATP assay at 10 μM
Assay type in all cases: biochemical
[1] = biological target: T1, 140 purified human kinases (Homo sapiens, UniProt O75385)
T1 sequence (O75385 1-1050): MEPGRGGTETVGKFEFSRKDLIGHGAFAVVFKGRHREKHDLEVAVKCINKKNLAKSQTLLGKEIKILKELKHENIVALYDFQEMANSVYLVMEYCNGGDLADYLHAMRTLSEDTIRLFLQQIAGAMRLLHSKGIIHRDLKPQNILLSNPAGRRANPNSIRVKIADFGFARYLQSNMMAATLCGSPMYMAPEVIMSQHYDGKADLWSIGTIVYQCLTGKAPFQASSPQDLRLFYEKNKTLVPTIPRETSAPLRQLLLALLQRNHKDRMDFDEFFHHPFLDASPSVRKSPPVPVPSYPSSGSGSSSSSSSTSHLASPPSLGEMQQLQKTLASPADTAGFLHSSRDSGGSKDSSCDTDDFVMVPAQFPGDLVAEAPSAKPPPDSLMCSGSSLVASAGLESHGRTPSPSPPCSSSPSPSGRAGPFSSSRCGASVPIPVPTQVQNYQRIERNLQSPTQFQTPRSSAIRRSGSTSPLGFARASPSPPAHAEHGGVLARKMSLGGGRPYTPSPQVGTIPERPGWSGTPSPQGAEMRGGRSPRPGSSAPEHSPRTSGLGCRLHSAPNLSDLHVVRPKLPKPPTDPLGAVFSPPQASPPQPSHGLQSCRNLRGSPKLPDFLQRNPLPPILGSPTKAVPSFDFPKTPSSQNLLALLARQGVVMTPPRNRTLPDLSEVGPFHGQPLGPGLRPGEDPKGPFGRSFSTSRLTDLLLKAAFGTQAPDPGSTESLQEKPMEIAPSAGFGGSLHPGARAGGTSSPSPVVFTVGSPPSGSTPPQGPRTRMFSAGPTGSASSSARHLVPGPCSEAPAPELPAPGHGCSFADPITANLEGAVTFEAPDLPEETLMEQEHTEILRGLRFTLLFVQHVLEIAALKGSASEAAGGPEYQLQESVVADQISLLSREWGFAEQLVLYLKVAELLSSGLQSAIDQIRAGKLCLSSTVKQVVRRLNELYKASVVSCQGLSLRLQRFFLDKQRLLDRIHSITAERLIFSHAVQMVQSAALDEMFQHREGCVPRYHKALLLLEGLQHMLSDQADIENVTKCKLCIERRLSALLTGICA
Procedure, shortened: (§1)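 Each complex tested in duplicate at 10 μM; cell-free radiometric assay using ^33P ATP on purified enzymes. Hits mapped by HGNC symbol onto the kinome tree.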

[2] = biological target: T2, 140 purified human kinases (Homo sapiens, UniProt Q8TDC3)
T2 sequence (Q8TDC3 1-778): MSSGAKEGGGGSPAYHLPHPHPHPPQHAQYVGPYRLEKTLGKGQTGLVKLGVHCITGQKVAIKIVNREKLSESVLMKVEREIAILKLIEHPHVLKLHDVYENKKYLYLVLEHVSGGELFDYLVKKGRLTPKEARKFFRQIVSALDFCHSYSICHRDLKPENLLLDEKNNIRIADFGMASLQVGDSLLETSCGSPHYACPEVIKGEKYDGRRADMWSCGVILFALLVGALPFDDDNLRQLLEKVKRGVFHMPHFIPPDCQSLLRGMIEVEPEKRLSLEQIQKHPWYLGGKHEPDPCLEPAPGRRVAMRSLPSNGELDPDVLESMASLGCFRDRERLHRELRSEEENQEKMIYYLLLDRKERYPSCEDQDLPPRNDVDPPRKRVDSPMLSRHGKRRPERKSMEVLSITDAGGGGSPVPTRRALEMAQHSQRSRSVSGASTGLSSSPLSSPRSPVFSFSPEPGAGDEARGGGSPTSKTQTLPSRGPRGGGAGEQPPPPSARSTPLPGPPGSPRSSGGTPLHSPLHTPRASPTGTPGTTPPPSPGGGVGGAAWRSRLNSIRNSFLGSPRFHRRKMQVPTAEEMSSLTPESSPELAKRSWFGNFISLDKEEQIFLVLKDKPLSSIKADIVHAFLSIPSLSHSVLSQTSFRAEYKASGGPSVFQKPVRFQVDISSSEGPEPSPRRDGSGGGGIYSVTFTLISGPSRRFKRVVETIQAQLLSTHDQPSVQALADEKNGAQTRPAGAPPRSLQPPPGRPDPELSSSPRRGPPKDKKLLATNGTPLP
Procedure, shortened: as §1

[3] = biological target: 140 purified human kinases (Homo sapiens, UniProt Q9Y4K4)
Procedure, shortened: as §1

[4] = biological target: 140 purified human kinases (Homo sapiens, UniProt Q16644); details: for % Activity inhibition Mean / % Activity inhibition Run 1 / % Activity inhibition Run 2 / % Activity remaining Run 1 / % Activity remaining Run 2: 10 µM
Procedure, shortened: as §1

Chain of 140 purified human kinases (Homo sapiens, UniProt Q16644) (Q16644 whole entry): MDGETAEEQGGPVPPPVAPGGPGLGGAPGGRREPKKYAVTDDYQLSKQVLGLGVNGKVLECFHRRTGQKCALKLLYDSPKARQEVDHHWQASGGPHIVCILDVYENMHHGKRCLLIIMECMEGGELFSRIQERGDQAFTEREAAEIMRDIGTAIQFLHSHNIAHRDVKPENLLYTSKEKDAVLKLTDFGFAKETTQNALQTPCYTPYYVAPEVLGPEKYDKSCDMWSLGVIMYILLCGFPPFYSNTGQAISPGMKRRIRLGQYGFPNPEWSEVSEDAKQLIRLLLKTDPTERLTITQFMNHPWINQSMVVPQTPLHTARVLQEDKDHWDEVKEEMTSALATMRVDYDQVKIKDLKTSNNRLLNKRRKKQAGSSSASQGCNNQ
Chain of 140 purified human kinases (Homo sapiens, UniProt Q9Y4K4) (Q9Y4K4 whole entry): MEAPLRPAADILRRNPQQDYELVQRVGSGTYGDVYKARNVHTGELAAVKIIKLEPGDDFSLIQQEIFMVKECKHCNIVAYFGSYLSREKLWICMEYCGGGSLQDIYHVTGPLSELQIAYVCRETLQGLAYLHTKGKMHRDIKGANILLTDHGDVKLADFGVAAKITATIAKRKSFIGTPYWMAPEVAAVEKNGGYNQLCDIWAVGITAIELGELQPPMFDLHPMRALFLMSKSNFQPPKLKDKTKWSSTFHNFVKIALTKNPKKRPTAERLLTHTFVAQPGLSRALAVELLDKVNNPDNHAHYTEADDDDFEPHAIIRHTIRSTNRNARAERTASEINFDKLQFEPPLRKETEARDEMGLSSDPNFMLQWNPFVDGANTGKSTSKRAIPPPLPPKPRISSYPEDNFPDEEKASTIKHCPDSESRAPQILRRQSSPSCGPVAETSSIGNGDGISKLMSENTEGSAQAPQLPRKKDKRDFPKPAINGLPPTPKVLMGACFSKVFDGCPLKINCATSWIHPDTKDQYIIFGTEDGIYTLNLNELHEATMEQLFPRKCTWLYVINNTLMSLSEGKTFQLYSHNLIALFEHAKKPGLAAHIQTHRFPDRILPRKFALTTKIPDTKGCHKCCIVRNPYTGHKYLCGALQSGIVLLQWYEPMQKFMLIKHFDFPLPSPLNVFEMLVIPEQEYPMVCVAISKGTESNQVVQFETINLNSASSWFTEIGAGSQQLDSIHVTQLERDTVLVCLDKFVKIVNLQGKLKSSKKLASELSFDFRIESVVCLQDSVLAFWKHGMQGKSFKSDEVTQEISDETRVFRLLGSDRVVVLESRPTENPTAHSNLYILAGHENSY

[Cu+2].[Cu+2].[Cu+2].c1ccc(-c2csc(NCCN(CCNc3nc(-c4ccccn4)cs3)CCNc3nc(-c4ccccn4)cs3)n2)nc1.c1ccc(-c2csc(NCCN(CCNc3nc(-c4ccccn4)cs3)CCNc3nc(-c4ccccn4)cs3)n2)nc1 [[L2Cu3]6+]
% Inhibition Run 1 ([1]; ULK1): 75.8%
% Inhibition Run 2 ([1]; ULK1): 76.3%
% Inhibition, Mean ([1]; ULK1): 76%
mean % activity ([1]; ULK1): 24%
% activity ([1]; ULK1, Run 1): 24.2%
% activity ([1]; ULK1, Run 2): 23.7%
% Inhibition Run 1 ([2]; BRSK1): 95.4%
% Inhibition Run 2 ([2]; BRSK1): 93.2%
% Inhibition, Mean ([2]; BRSK1): 94%
mean % activity ([2]; BRSK1): 5.7%
% activity ([2]; BRSK1, Run 1): 4.6%
% activity ([2]; BRSK1, Run 2): 6.8%
% Activity inhibition Mean ([2]; BRSK1, 10 µM): 94.3%
% Activity inhibition Run 1 ([2]; BRSK1, 10 µM): 95.4%
% Activity inhibition Run 2 ([2]; BRSK1, 10 µM): 93.2%
% Activity remaining Run 1 ([2]; BRSK1, 10 µM): 4.60%
% Activity remaining Run 2 ([2]; BRSK1, 10 µM): 6.80%
% Inhibition Run 1 ([3]; MAP4K5): 54.5%
% Inhibition Run 2 ([3]; MAP4K5): 51.4%
% Inhibition, Mean ([3]; MAP4K5): 53%
mean % activity ([3]; MAP4K5): 47%
% activity ([3]; MAP4K5, Run 1): 45.5%
% activity ([3]; MAP4K5, Run 2): 48.6%
% Inhibition Run 1 ([4]; MAPKAP-K3): 98.5%
% Inhibition Run 2 ([4]; MAPKAP-K3): 89.3%
% Inhibition, Mean ([4]; MAPKAP-K3): 94%
mean % activity ([4]; MAPKAP-K3): 6%
% activity ([4]; MAPKAP-K3, Run 1): 1.5%
% activity ([4]; MAPKAP-K3, Run 2): 10.7%
% Activity inhibition Mean ([4]; MAPKAP-K3): 93.9%
% Activity inhibition Run 1 ([4]; MAPKAP-K3): 98.5%
% Activity inhibition Run 2 ([4]; MAPKAP-K3): 89.3%
% Activity remaining Run 1 ([4]; MAPKAP-K3): 1.50%
% Activity remaining Run 2 ([4]; MAPKAP-K3): 10.70%

CC(=O)[O-].CC(=O)[O-].CC(=O)[O-].CC(=O)[O-].CC(=O)[O-].CC(=O)[O-].[Zn+2].[Zn+2].[Zn+2].c1ccc(-c2csc(NCCN(CCNc3nc(-c4ccccn4)cs3)CCNc3nc(-c4ccccn4)cs3)n2)nc1.c1ccc(-c2csc(NCCN(CCNc3nc(-c4ccccn4)cs3)CCNc3nc(-c4ccccn4)cs3)n2)nc1 [[L2Zn3]6+]
% Inhibition, Mean ([1]; ULK1): 30%
mean % activity ([1]; ULK1): 70%
% activity ([1]; ULK1, duplicate runs): 58% and 82%
% Inhibition, Mean ([2]; BRSK1): 32%
% Inhibition, Run 1 / Run 2 ([2]; BRSK1): 39% and 26%
mean % activity ([2]; BRSK1): 68%
% activity ([2]; BRSK1, duplicate runs): 62% and 74%
% Inhibition, Mean ([3]; MAP4K5): 60%
% Inhibition, Run 1 / Run 2 ([3]; MAP4K5): 60% and 59%
mean % activity ([3]; MAP4K5): 40%
% activity ([3]; MAP4K5, duplicate runs): 40% and 41%
% Inhibition, Mean ([4]; MAPKAP-K3): 93%
% Inhibition, Run 1 / Run 2 ([4]; MAPKAP-K3): 94% and 92%
mean % activity ([4]; MAPKAP-K3): 6.6%
% Activity inhibition Mean ([4]; MAPKAP-K3): 93.0%
% Activity inhibition Run 1 ([4]; MAPKAP-K3): 94%
% Activity inhibition Run 2 ([4]; MAPKAP-K3): 92%
% Activity remaining Run 1 ([4]; MAPKAP-K3): 6%
% Activity remaining Run 2 ([4]; MAPKAP-K3): 8%
% activity ([4]; MAPKAP-K3, duplicate runs): 5.6% and 7.6%
